Measured values published in paper PMC7822115 (Viruses, 2020).
Like-named read-outs stand apart in the source and are kept apart here.

Key:
SARS-CoV-2 [1] = test: microbe, parasite or virus in culture; format: cell-based
SARS-CoV-2 [2] = test: microbe, parasite or virus in culture; format: cell-based; conditions: for EC50: Severe acute respiratory syndrome coronavirus 2, Vero, 48 h, read-out: EC50 (95% CI)
Vero cells = conditions: African green monkey
in vitro [3] = conditions: African green monkey
[4] = in vivo; cited from earlier work
MERS-CoV = test: microbe, parasite or virus in culture; format: cell-based; conditions: Middle East respiratory syndrome-related coronavirus, Vero, 48 h, read-out: EC50 (95% CI)
in vitro [5] = conditions: human

Compound | SARS-CoV-2 replication after treatment (in words) (SARS-CoV-2 [1]) | SARS-CoV-2 replication after treatment (in words) (SARS-CoV-2 [2]) | Concentration at which cellular toxicity was observed (Vero cells) [µM] | EC50 (SARS-CoV-2 [1]; Severe acute respiratory syndrome coronavirus 2, A549-ACE2, 48 h, read-out: EC50 (95% CI)) [µM] | CC50 (in vitro [3]) [µM] | Cellular viability / toxicity compared to the media control (in words) (A549/ACE2 cells) | EC50 (SARS-CoV-2 [2]) [µM] | Peak human serum concentration [4] [µM] | EC50 (MERS-CoV) [µM] | CC50 (in vitro [5]) [µM] | Decrease in mean SARS-CoV-2 titer compared to the control (SARS-CoV-2 [1]) [log] | SARS-CoV-2 titer after treatment (in words) (SARS-CoV-2 [1]) | Concentration at which cellular toxicity was detected (A549/ACE2 cells; human) [µM] | SARS-CoV-2 titer after treatment (in words) (SARS-CoV-2 [2])
O=C(Nc1ccc([N+](=O)[O-])cc1Cl)c1cc(Cl)ccc1O [niclosamide] | below the level of detection | below the level of detection |  |  |  |  |  |  |  |  |  |  |  | 
CCn1cc(C(=O)O)c(=O)c2cc(F)c(N3CCNCC3)nc21 [Enoxacin, enoxacin] |  |  | ≥ 37.5 | 227 | > 600 | not different from the media control | 126 | 11.2 | 343 | > 600 |  |  |  | 
C[C@H]1COc2c(N3CCN(C)CC3)c(F)cc3c(=O)c(C(=O)O)cn1c23 [Levofloxacin, levofloxacin] |  |  |  |  | > 600 |  | 419 |  |  | > 600 | 1.4 |  |  | 
COc1c(N2C[C@@H]3CCCN[C@@H]3C2)c(F)cc2c(=O)c(C(=O)O)cn(C3CC3)c12 [Moxifloxacin, moxifloxacin] |  |  | ≥ 300 |  | > 600 |  | 240 | 8.6 |  | > 600 | 2.2 | below the level of detection | ≥ 300 | below the level of detection
O=C(O)c1cn(C2CC2)c2cc(N3CCNCC3)c(F)cc2c1=O [Ciprofloxacin, ciprofloxacin] |  |  |  |  |  |  | 247 | 7.2 |  |  |  |  |  | below the level of detection
